Data: a melting point compilation (Tetko et al.)

| SMILES | melting point |
| --- | --- |
| Cc1cc([N+]([O-])=Nc2ccc(N=Nc3ccccc3)cc2)ccc1N=Nc1ccc(N=Nc2ccccc2)cc1 | 193 °C |
| CN(C)CCn1cnc2c1c(=O)n(C)c(=O)n2C | 95 °C |
| Cc1ccc(Cl)c([N+](=O)[O-])c1 | 7 °C |
| Clc1ccc(-c2c(Cl)cc(Cl)c(Cl)c2Cl)cc1Cl | 107 °C |
| O=C(O)CCCc1ccc2ccc3cccc4ccc1c2c34 | 185 to 190 °C |
| CC(C)(C)C(=O)CS(=O)(=O)c1ccc(Cl)cc1 | 97 °C |
| Cn1nc(O)cc1C(F)(F)F | 114 to 115 °C |
| N[C@@H](Cc1cc(Br)c(O)c(Br)c1)C(=O)O | 245 °C |
| CCCCCCCCCCC(=O)c1ccccc1 | 28 to 30 °C |
| O=C1CN=C(c2ccccc2)c2cc(Cl)ccc2N1CC(F)(F)F | 164 °C |
| COc1cc2c(cc1O)CCNC2C (stereo not given) | 222 °C |
| c1c2c(cc3c1CC3)CC2 | 101 °C |
| Cc1cc2nc3c(=O)[nH]c(=O)nc-3n(C)c2cc1C | 320 °C |
| Cc1cccc(C(=O)CC#N)c1 | 73 to 75 °C |
| O=[N+]([O-])c1ccccc1C(F)(F)F | 32.5 °C |
| Cc1cccnc1NC(=O)C(C(F)(F)F)C(F)(F)F | 181 °C |
| CC(C)(C)C(C)(C)O | 17 °C |
| CC(=O)OCC(COC(C)=O)OC(C)=O | 78 °C |
| C=CCN=C(NCC=C)c1cc(C(C)(C)C)c(O)c(C(C)(C)C)c1 | 201 to 202 °C |
| C1CN(SSN2CCOCC2)CCO1 | 124 °C |
| COc1ccc(Oc2ccc(C(F)(F)F)cc2N)cc1 | 73 to 75 °C |
| c1cc2c(c(NC3=NCCN3)c1)CCCC2 | 142 °C |
| O=[N+]([O-])c1ccc(Sc2ccc([N+](=O)[O-])cc2)cc1 | 160 °C |

| SMILES | melting point |
| --- | --- |
| Cc1nn(C)c(C)c1N=C=O | 36 to 40 °C |
| Cc1cc(C(=O)O)n[nH]1 | 241 to 242 °C |
| CCCSCC | -117 °C |
| CCOC(=O)c1sc(SC)c(S(=O)(=O)C(C)C)c1N | 143 to 146 °C |
| O=C(C=Cc1ccc(F)cc1)C=Cc1ccc(F)cc1 | 141 to 146 °C |
| CCCCSCCC(N)C(=O)O (racemic) | 238 to 243 °C |
| CC=C(C)Cl | -19 °C |
| O=C(O)c1ccccc1-c1cccs1 | 92 to 95 °C |
| CCOC(=O)CC(=O)C(C)C | -9 °C |
| CC(=O)c1ccc2c(c1)OCO2 | 86 to 89 °C |
| Cc1c(C(=O)Cl)cnn1-c1ccc(Cl)cc1 | 115 °C |
| O=C(O)c1ccc(-c2ccc(Cl)cc2)o1 | 198 to 201 °C |
| Cc1cccc(NC(=O)c2cnc(C(C)(C)C)c(Cl)n2)c1 | 99 °C |
| Cc1ccc(C(C(=O)NC(C)(C)C)N(C)C(=O)CCCc2ccc3ccc4cccc5ccc2c3c45)cc1 (stereo not given) | 141 °C |
| Oc1ccc(O)c2ccccc12 | 188 to 192 °C |
| Cc1ccc(Cl)cc1C | -6 °C |
| O=C(O)c1onc2ccccc12 | 185 °C |
| NC(C(=O)O)C(O)c1ccccc1 (racemic) | 186 °C |
| CC(C)(C(=O)O)C1=CCC2(C)C(CCC3C4CCC(O)C4(C)CCC32)C1 (stereo not given) | 264 °C |
| COP(=S)(OC)Oc1ccc(S(=O)(=O)N(C)C)cc1 | 53 °C |
| COc1ccccc1C1CNCCN1 (stereo not given) | 80 °C |
| O=C1c2ccccc2NC1(OC1(c2ccccn2)Nc2ccccc2C1=O)c1ccccn1 (stereo not given) | 240 °C |
| ICCc1ccc(CCI)cc1 | 111 °C |

| SMILES | melting point |
| --- | --- |
| CC1(C)OC(=O)C(=Cc2ccc(-c3ccc(Cl)cc3)o2)C(=O)O1 | 109 °C |
| O=C1CCCCC1C1CCCCC1 (stereo not given) | -32 °C |
| CC(=O)c1cc(Br)cc([N+](=O)[O-])c1O | 131 °C |
| Cc1ccc(SSc2ccc(C)cc2)cc1 | 47.5 °C |
| CCOC(=O)c1ccc(O)c(O)c1 | 134 °C |
| CS(=O)(=O)OS(C)(=O)=O | 69 to 70 °C |
| CNC(=O)N(C)C | 75.5 °C |
| CCCc1ccc(NC(C)=O)cc1O | 178 to 179 °C |
| CCOC(=O)CC(C(C)=O)C(=O)OCC (stereo not given) | -8 °C |
| Fc1cccc(-c2cccc(F)c2)c1 | 8 °C |
| O=C(O)C(O)C(Cl)(Cl)Cl (stereo not given) | 125 °C |
| O=c1c(O)c(-c2ccc(O)c(O)c2)oc2cc(O)ccc12 | 330 °C |
| O=CC(C=O)c1ccncn1 | 227 to 232 °C |
| CNCc1ccccc1Cn1cncn1 | 57 to 59 °C |
| Nc1ncc([N+](=O)[O-])cc1Br | 214 to 218 °C |
| CCN(CC)CCCN(c1ccccc1)C1Cc2ccccc2C1 | 120 °C |
| OCc1nccs1 | 62 to 64 °C |
| Clc1cccc(C(Cl)(Cl)Cl)c1 | 0.6 °C |
| CN(N)c1cnn(C)c(=O)c1Cl | 131 to 133 °C |
| CCCCC(C(N)=O)n1nc2ccccc2n1 (stereo not given) | 102 °C |
| CC(=O)OCC1OC(n2cnc3c(N)ncnc32)C(OC(C)=O)C1OC(C)=O (stereo not given) | 174 to 175 °C |
| C[Si](C)(C)O[Si](C)(C)O[Si](C)(C)C | -80 °C |
| OCc1ncoc1-c1ccccc1 | 95 to 97 °C |

| SMILES | melting point |
| --- | --- |
| O=C(c1ccco1)N1CCNCC1 | 68 °C |
| CCOC(=O)c1cnc2c(c(C)nn2C)c1Cl | 87 to 90 °C |
| Cc1cc(Cl)ccc1N=CN(C)C | 35 °C |
| Brc1ccc(C#Cc2ccc(Br)cc2)cc1 | 182 to 184 °C |
| Cc1nc(N)ccc1Br | 82 to 83 °C |
| Fc1c(F)c(F)c(I)c(I)c1F | 49 to 50 °C |
| Oc1cccc(N2CCNCC2)c1 | 207 °C |
| COC(=O)c1scc(C)c1N=C=S | 58 to 60 °C |
| O=C(NC1C2C=CC(C2)C1C(=O)O)OCc1ccccc1 (stereo not given) | 119 to 123 °C |
| O=S(=O)(Cl)c1ccc2c(c1)OCCCO2 | 50 to 52 °C |
| O=C(O)C(C(=O)O)c1ccccc1 | 153 to 155 °C |
| O=C(Cl)c1ccc2snnc2c1 | 93 to 96 °C |
| Cc1cc(O)nc(C(C)C)n1 | 173 °C |
| C=CC(Cl)(Cl)Cl | -30 °C |
| CC(C)(C)C(=O)C(C)(C)C | -25.2 °C |
| O=[N+]([O-])c1ccc(N2CCOCC2)cc1 | 152 °C |
| [O-][P+](c1ccccc1)(c1ccccc1)C1c2ccccc2Oc2ccccc21 | 161 °C |
| O=C(Nc1ccc([N+](=O)[O-])cc1Cl)C1(F)C(F)(F)C(F)(F)C(F)(F)C(F)(F)C1(F)F | 93 °C |
| CCC1C2CC3C4N(C)c5ccccc5C45CC(C2C5O)N3C1O (stereo not given) | 159 °C |
| Nc1n[nH]c(N)c1Cc1ccc(Cl)cc1 | 165 to 167 °C |
| CCCN(CC)CC1COC2(CCC(C(C)(C)C)CC2)O1 (stereo not given) | < 25 °C |
| CCCC(C)CC (stereo not given) | -119 °C |
| Cc1nc(CC(=O)O)cs1 | 124 to 125 °C |

| SMILES | melting point |
| --- | --- |
| Cc1ccc(C)c(C(=O)CC(C)(C)C(=O)O)c1 | 118 to 119 °C |
| CC1=NN(c2ccccc2)C(=O)C1 | 129 °C |
| CC(=O)Nc1ccccc1/C=C\c1ccccc1 | 115 to 117 °C |
| O=Cc1ccc(F)c(Cl)c1 | 28 to 30 °C |
| COc1cc2c(c(O)c1OC)C(C)N(C)CC2 (stereo not given) | 112 °C |
| OCc1ccc(-n2cccn2)cc1 | 76 to 80 °C |
| Cc1cc(C)n(C(=O)CC#N)n1 | 120 °C |
| Nc1cc(Br)ccc1Cl | 48 to 49 °C |
| Cc1ccc(-c2nnc(CCl)o2)cc1 | 121 to 123 °C |
| O=C1CSC(=S)N1c1ccccc1 | 194 °C |
| Brc1ccc(Sc2ccc(Br)cc2)cc1 | 115 °C |
| OCc1cc(Cl)nc(Cl)c1 | 128 to 130 °C |
| O=c1cccco1 | 8.5 °C |
| O=C1CCC(C(=O)O)=NN1 | 199 to 200 °C |
| CC(C)OP(=O)(CCP(=O)(OC(C)C)OC(C)C)OC(C)C | 35.5 °C |
| COC(=O)c1c(C=O)c(C)n(C)c1C | 124 to 127 °C |
| O=C1CC=CCC(=O)CC=CC1 | 184 °C |
| COC(=O)c1cccoc1=O | 76 °C |
| C=CC1(C)CCC2C(=CCC3C(C)(C(=O)O)CCCC23C)C1 (stereo not given) | 160 °C |
| COc1ccc(CCl)c(C)c1CCl | 97 °C |
| NCCc1cccc(CCO)c1 | 264 °C |
| COc1ccc(-n2ncc(C(=O)O)c2C)cc1 | 212 to 213 °C |
| Oc1ccc(Br)c2cccnc12 | 124 °C |

| SMILES | melting point |
| --- | --- |
| COc1ccc(C=C2C3=C(CCCC3)OC3=C2CCCC3)cc1 | 123 to 124 °C |
| Cn1nc(N)c2c(=O)c(C(=O)O)c[nH]c21 | 223 to 225 °C |
| O=C(O)CS(=O)(=O)O | 85 °C |
| NC(=O)c1cccc(C(=O)O)c1 | 280 °C |
| O=C(O)C(O)c1ccc(F)c(F)c1 (stereo not given) | 94 °C |
| O=C1NCCSC1c1ccccc1 (stereo not given) | 158 to 162 °C |
| CC(C)(C)[C@H](N)CO | 30 to 34 °C |
| COc1ccc(/N=N/c2sc(/C(C#N)=N/Nc3ccc(F)cc3)nc2C)cc1 | 214 °C |
| CN(C)C(C)(C)C | -90 °C |
| CC(C)(C)OC(=O)CC(=O)OC(C)(C)C | -6 °C |
| Cc1ccc2cc(CBr)ccc2n1 | 93 to 94 °C |
| C[Si](c1ccccc1)(c1ccccc1)[Si](C)(c1ccccc1)c1ccccc1 | 138 to 140 °C |
| O=[N+]([O-])c1ccc(NN=C(Cc2ccccc2)C(Cc2ccccc2)=NNc2ccc([N+](=O)[O-])cc2)cc1 | 276 °C |
| OCC1(O)CC(O)C(O)CO1 (stereo not given) | 111 °C |
| O=c1c(I)cn(CC(O)CO)cc1I (stereo not given) | 161 °C |
| O=C(c1ccc(F)cc1)c1ccccc1F | 22 to 24 °C |
| S=c1[nH]ccn1-c1ccc(Br)cc1 | 244 to 246 °C |
| CCc1ccc(CCOc2ccc(CC3SC(=O)NC3=O)cc2)nc1 (stereo not given) | 184 °C |
| O=C(Nc1ccccc1)C(Cl)=NNc1ccccc1 | 159 to 161 °C |
| COc1cc(C(O)C(=O)O)ccc1O (stereo not given) | 131 to 134 °C |
